Converted amounts (≈) assume the structure as drawn.
Key:
H37Rv = experiment: microbe, parasite or virus in culture; assay type: cell-based; details: Mycobacterium tuberculosis, read-out: MIC
Erdman (mmpR5 E21K) = assay type: cell-based, M. tuberculosis
Mtb H37Rv = assay type: cell-based, M. tuberculosis
WT Mtb Erdman = assay type: cell-based, M. tuberculosis; details: area under the dose-response curve
[1] = test system: mixed mmpL3 mutant pool (24 unique Mtb mmpL3 mutants); assay type: cell-based, M. tuberculosis
H37Rv (rpoB S450L) = assay type: cell-based, M. tuberculosis
H37Rv (gyrA D94K) = assay type: cell-based, M. tuberculosis
Mtb = details: cited from earlier work

SMILES | MIC (H37Rv) [µg/mL] | EC50 (Erdman (mmpR5 E21K)) [nM] | Frequency of resistance, 2 × MIC (Mtb H37Rv) | Frequency of resistance, 8 × MIC (Mtb H37Rv) | Frequency of resistance, 16 × MIC (Mtb H37Rv) | WT AUC (WT Mtb Erdman) | Mixed mmpL3 AUC [1] | MIC, H37Rv (rpoB S450L) (H37Rv (rpoB S450L)) [µM] | MIC, H37Rv (gyrA D94K) (H37Rv (gyrA D94K)) [µM] | in vitro frequency of resistance (FoR) (Mtb) | activity (MIC) against the rpoB S450L strain (H37Rv (rpoB S450L)) [µg/mL]
COc1nc2ccc(Br)cc2cc1[C@@H](c1ccccc1)[C@@](O)(CCN(C)C)c1cccc2ccccc12 [Bedaquiline] | 2 (≈ 3.6 µM) | 910 | 1.43 × 10^−7 | 3.57 × 10^−8 | 3.57 × 10^−8 | – | – | – | – | – | –
CC(C)/N=c1\cc2n(-c3ccc(Cl)cc3)c3ccccc3nc-2cc1Nc1ccc(Cl)cc1 [Clofazimine] | – | 1600 | – | – | – | – | – | – | – | – | –
CC[C@@H](CO)NCCN[C@@H](CC)CO [Ethambutol] | 1 (≈ 4.89 µM) | – | 3.61 × 10^−6 | 8.57 × 10^−7 | 1.79 × 10^−8 | – | – | – | – | – | –
Cc1ccc2nc(SCC(=O)N(C(C)C)C(C)C)[nH]c2c1 [HC2183] | – | – | – | – | – | 101.7 | 34.08 | – | – | – | –
NNC(=O)c1ccncc1 [Isoniazid] | 0.125 (≈ 0.911 µM) | – | 5.0 × 10^−6 | 3.93 × 10^−6 | 2.71 × 10^−6 | – | – | 0.4 (≈ 0.0549 µg/mL) | 0.2 (≈ 0.0274 µg/mL) | 10^−6 | –
Cc1cc2nc(SCC(=O)N(C(C)C)C(C)C)[nH]c2cc1C [MSU-42766] | 0.5 (≈ 1.57 µM) | 1800 | 1.36 × 10^−6 | 8.0 × 10^−8 | 0 | 169.9 | 73.44 | 0.8 (≈ 0.256 µg/mL) | 1.5 (≈ 0.479 µg/mL) | – | 0.25
CC(C)N(C(=O)CNc1nc2cc(Cl)c(Cl)cc2[nH]1)C(C)C [MSU-43165] | – | – | – | – | – | 214.5 | 147.2 | – | – | – | –
CC(C)N(C(=O)COc1nc2cc(Cl)c(Cl)cc2[nH]1)C(C)C [MSU-43170] | – | – | – | – | – | 247.5 | 160.3 | – | – | – | –
COc1c(N2C[C@@H]3CCCN[C@@H]3C2)c(F)cc2c(=O)c(C(=O)O)cn(C3CC3)c12 [Moxifloxacin] | – | – | – | – | – | – | – | 0.15 (≈ 0.0602 µg/mL) | >5.0 | – | –
CC1COc2c(N3CCN(C)CC3)c(F)cc3c(=O)c(C(=O)O)cn1c23 (centres unmarked) [Ofloxacin] | 1 (≈ 2.77 µM) | – | 5.36 × 10^−7 | 7.14 × 10^−8 | 3.57 × 10^−8 | – | – | – | – | – | –
O=[N+]([O-])c1cn2c(n1)OC[C@@H](OCc1ccc(OC(F)(F)F)cc1)C2 [Pretomanid] | 0.5 (≈ 1.39 µM) | – | 1.79 × 10^−6 | 8.57 × 10^−7 | 1.43 × 10^−7 | – | – | – | – | – | –
CO[C@H]1/C=C/O[C@@]2(C)Oc3c(C)c(O)c4c(O)c(c(/C=N/N5CCN(C)CC5)c(O)c4c3C2=O)NC(=O)/C(C)=C\C=C\[C@H](C)[C@H](O)[C@@H](C)[C@@H](O)[C@@H](C)[C@H](OC(C)=O)[C@@H]1C [Rifampicin] | 0.5 (≈ 0.608 µM) | – | 5.36 × 10^−7 | 7.14 × 10^−8 | 3.57 × 10^−8 | – | – | – | – | – | –

— publication PMC10783087 (Microbiology Spectrum, 2023)
